The results in this text go back to patent EP0595557A1, “New substituted azetidinones as anti-inflammatory and antidegenerative agents” (MERCK & CO. INC., priority 1992, dated 1994).

This assay has as its target T1, Human Polymorphonuclear Leukocyte Elastase (Homo sapiens, UniProt P08246).
T1 construct: Crude extract of human polymorphonuclear leukocytes (PMN) containing elastase activity; from tissue; host or cells: human polymorphonuclear leukocytes (crude extract)
T1 sequence (P08246 30-267): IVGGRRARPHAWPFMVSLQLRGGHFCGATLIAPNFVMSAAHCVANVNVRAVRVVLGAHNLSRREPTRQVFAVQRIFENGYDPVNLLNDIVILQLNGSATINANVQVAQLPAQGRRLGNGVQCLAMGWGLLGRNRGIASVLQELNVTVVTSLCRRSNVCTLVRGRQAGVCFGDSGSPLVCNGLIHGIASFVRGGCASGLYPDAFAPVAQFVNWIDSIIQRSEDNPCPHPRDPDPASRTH
The experiment in a line: Enzyme assay for inhibition of human polymorphonuclear leukocyte elastase via hydrolysis of Boc-AAPAN or Boc-AAPVN. Type of assay: biochemical. The settings on record: pH 7.5, second order rate constant for inactivation of the enzyme, expressed to the nearest thousand, read-out: Kobs/[I]. In a few lines: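 Crude human PMN extract as enzyme source, with 0.2 mM Boc-AAPAN in 0.05M TES buffer pH 7.5. Inhibitors in DMSO were added to substrate before the extract, and rate was followed as ΔOD/min at 410 mµ. Values are kobs/I, the second-order inactivation rate constant (per mole per second).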
In the case of `CCC[C@@H](NC(=O)N1C(=O)C(CC)(CC)[C@@H]1Oc1ccc(C(=O)Nc2ccc(F)cc2)cc1)c1ccc(C)cc1` [Compound 134], the kinact/KI came out at 724000 M⁻¹ s⁻¹.

For the compound `CCC[C@@H](NC(=O)N1C(=O)C(CC)(CC)[C@@H]1Oc1ccc(C(=O)Nc2cccc(Cl)c2)cc1)c1ccc(C)cc1` [Compound 135], the kinact/KI was 201000 M⁻¹ s⁻¹.

Consider `CCC[C@@H](NC(=O)N1C(=O)C(CC)(CC)[C@@H]1Oc1ccc(C(=O)N(CCN(C)C)Cc2ccccc2)cc1)c1ccc(C)cc1` [Compound 137], for which the kinact/KI is 1.38e+06 M⁻¹ s⁻¹.

Consider `CCC[C@@H](NC(=O)N1C(=O)C(CC)(CC)[C@@H]1Oc1ccc(C(=O)N(C)CCN2CCC(O)C2)cc1)c1ccc(C)cc1` (stereo partly shown) [Compound 138], for which the kinact/KI was determined as 960000 M⁻¹ s⁻¹.

On to `CCC[C@@H](NC(=O)N1C(=O)C(CC)(CC)[C@@H]1Oc1ccc(C(=O)N(CCN2CCCCC2)Cc2cccnc2)cc1)c1ccc(C)cc1` [Compound 139], for which the kinact/KI was found to be 1.19e+06 M⁻¹ s⁻¹.

Take `CCC[C@@H](NC(=O)N1C(=O)C(CC)(CC)[C@@H]1Oc1ccc(C(=O)NC(C)CCCN(CC)CC)cc1)c1ccc(C)cc1` (stereo partly shown) [Compound 140]: the kinact/KI stood at 1.36e+06 M⁻¹ s⁻¹.

Turning to `CCC[C@@H](NC(=O)N1C(=O)C(CC)(CC)[C@@H]1Oc1ccc(C(=O)NCCN2CCC[C@H]2CO)cc1)c1ccc(C)cc1` [Compound 141], the kinact/KI is 1.51e+06 M⁻¹ s⁻¹.

In the case of `CCC[C@@H](NC(=O)N1C(=O)C(CC)(CC)[C@@H]1Oc1ccc(C(=O)N(C)CCN2CCN(C(=O)OC(C)(C)C)CC2)cc1)c1ccc(C)cc1` [Compound 142], the kinact/KI worked out at 3.47e+06 M⁻¹ s⁻¹.

In the case of `CCC[C@@H](NC(=O)N1C(=O)C(CC)(CC)[C@@H]1Oc1ccc(C(=O)N(CCN(C)C)CCN(C)C)cc1)c1ccc(C)cc1` [Compound 143], the kinact/KI was 1.88e+06 M⁻¹ s⁻¹.

For `CCC[C@@H](NC(=O)N1C(=O)C(CC)(CC)[C@@H]1Oc1ccc(C(=O)N(CCN(CC)CC)CCN(CC)CC)cc1)c1ccc(C)cc1` [Compound 144], the kinact/KI came out at 1.51e+06 M⁻¹ s⁻¹.

Take `CCC[C@@H](NC(=O)N1C(=O)C(CC)(CC)[C@@H]1Oc1ccc(C(=O)N(C)CCN(C)Cc2cccnc2)cc1)c1ccc(C)cc1` [Compound 145]: the kinact/KI is 2.88e+06 M⁻¹ s⁻¹.

In the case of `CCC[C@@H](NC(=O)N1C(=O)C(CC)(CC)[C@@H]1Oc1ccc(C(=O)N2CC(C)NC(C)C2)cc1)c1ccc(C)cc1` (stereo partly shown) [Compound 146], the kinact/KI was 1.52e+06 M⁻¹ s⁻¹.

For the compound `CCC[C@@H](NC(=O)N1C(=O)C(CC)(CC)[C@@H]1Oc1ccc(C(=O)N(C)CC[N+](C)([O-])Cc2ccccc2)cc1)c1ccc(C)cc1` (stereo partly shown) [Compound 147], the kinact/KI is 2.49e+06 M⁻¹ s⁻¹.

Regarding `CCC[C@@H](NC(=O)N1C(=O)C(CC)(CC)[C@@H]1Oc1ccc(C(=O)N(C)CCN(C)Cc2ccncc2)cc1)c1ccc(C)cc1` [Compound 148], the kinact/KI turned out to be 2.39e+06 M⁻¹ s⁻¹.

For `CCC[C@@H](NC(=O)N1C(=O)C(CC)(CC)[C@@H]1Oc1ccc(C(=O)N2CCC[C@H]2CN(C)Cc2ccccc2)cc1)c1ccc(C)cc1` [Compound 149], the kinact/KI came to 3.27e+06 M⁻¹ s⁻¹.

`CCC[C@@H](NC(=O)N1C(=O)C(CC)(CC)[C@@H]1Oc1ccc(C(=O)N(C)CCN(C)Cc2ccccn2)cc1)c1ccc(C)cc1` [Compound 150]: the kinact/KI came to 2.16e+06 M⁻¹ s⁻¹.

On to `CCC[C@@H](NC(=O)N1C(=O)C(CC)(CC)[C@@H]1Oc1ccc(C(=O)N(C)CCN2CCNCC2)cc1)c1ccc(C)cc1` [Compound 151], for which the kinact/KI turned out to be 1.19e+06 M⁻¹ s⁻¹.

As for `CCC[C@@H](NC(=O)N1C(=O)C(CC)(CC)[C@@H]1Oc1ccc(C(=O)N2CCCNCC2)cc1)c1ccc(C)cc1` [Compound 152], the kinact/KI turned out to be 1.95e+06 M⁻¹ s⁻¹.

Turning to `CCC[C@@H](NC(=O)N1C(=O)C(CC)(CC)[C@@H]1Oc1ccc(C(=O)N(C)CCN(C)CCc2ccccc2)cc1)c1ccc(C)cc1` [Compound 153], the kinact/KI amounted to 2.8e+06 M⁻¹ s⁻¹.

For `CCC[C@@H](NC(=O)N1C(=O)C(CC)(CC)[C@@H]1Oc1ccc(C(=O)N2CCC[C@@H]2CN2CCCC2)cc1)c1ccc(C)cc1` [Compound 154], the kinact/KI stood at 1.67e+06 M⁻¹ s⁻¹.

With `CCC[C@@H](NC(=O)N1C(=O)C(CC)(CC)[C@@H]1Oc1ccc(C(=O)N2CCCN(Cc3ccccc3)CC2)cc1)c1ccc(C)cc1` [Compound 155], the kinact/KI is 1.98e+06 M⁻¹ s⁻¹.

`CCC[C@@H](NC(=O)N1C(=O)C(CC)(CC)[C@@H]1Oc1ccc(C(=O)N(C)CC(O)C(O)C(O)C(O)CO)cc1)c1ccc(C)cc1` (stereo partly shown) [Compound 156]: the kinact/KI is 1.2e+06 M⁻¹ s⁻¹.

Consider `CCC[C@@H](NC(=O)N1C(=O)C(CC)(CC)[C@@H]1Oc1ccc(C(=O)N(C)CC(OC(C)=O)C(OC(C)=O)C(OC(C)=O)C(COC(C)=O)OC(C)=O)cc1)c1ccc(C)cc1` (stereo partly shown) [Compound 157], for which the kinact/KI was determined as 1.17e+06 M⁻¹ s⁻¹.

As for `CCC[C@@H](NC(=O)N1C(=O)C(CC)(CC)[C@@H]1Oc1ccc(C(=O)N(C)CCN(C)Cc2cccc3ccccc23)cc1)c1ccc(C)cc1` [Compound 158], the kinact/KI worked out at 1.08e+06 M⁻¹ s⁻¹.

Regarding `CCC[C@@H](NC(=O)N1C(=O)C(CC)(CC)[C@@H]1Oc1ccc(C(=O)N(C)CCN(Cc2ccccc2)Cc2ccccc2)cc1)c1ccc(C)cc1` [Compound 161], the kinact/KI turned out to be 1.02e+06 M⁻¹ s⁻¹.

Regarding `CCC[C@@H](NC(=O)N1C(=O)C(CC)(CC)[C@@H]1Oc1ccc(C(=O)NC2CCCN(CC)C2)cc1)c1ccc(C)cc1` (stereo partly shown) [Compound 162], the kinact/KI is 949000 M⁻¹ s⁻¹.

On to `CCC[C@@H](NC(=O)N1C(=O)C(CC)(CC)[C@@H]1Oc1ccc(C(=O)N(C)CCN(C)Cc2ccco2)cc1)c1ccc(C)cc1` [Compound 163], for which the kinact/KI is 1.82e+06 M⁻¹ s⁻¹.

In the case of `CCC[C@@H](NC(=O)N1C(=O)C(CC)(CC)[C@@H]1Oc1ccc(C(=O)N(C)CCCC(=O)O)cc1)c1ccc(C)cc1` [Compound 164], the kinact/KI turned out to be 1.06e+06 M⁻¹ s⁻¹.

For the compound `CCC[C@@H](NC(=O)N1C(=O)C(CC)(CC)[C@@H]1Oc1ccc(C(=O)N(C)CCCC(=O)NS(=O)(=O)c2ccccc2)cc1)c1ccc(C)cc1` [Compound 165], the kinact/KI worked out at 1.55e+06 M⁻¹ s⁻¹.

As to `C=CCN(C)CCN(C)C(=O)c1ccc(O[C@@H]2N(C(=O)N[C@H](CCC)c3ccc(C)cc3)C(=O)C2(CC)CC)cc1` [Compound 166], the kinact/KI is 1.36e+06 M⁻¹ s⁻¹.

Consider `CCC[C@@H](NC(=O)N1C(=O)C(CC)(CC)[C@@H]1Oc1ccc(C(=O)N(C)CCCN(C)Cc2ccccc2)cc1)c1ccc(C)cc1` [Compound 167], for which the kinact/KI is 1.29e+06 M⁻¹ s⁻¹.

On to `CCC[C@@H](NC(=O)N1C(=O)C(CC)(CC)[C@@H]1Oc1ccc(C(=O)N(C)CCCCCCN(C)Cc2ccccc2)cc1)c1ccc(C)cc1` [Compound 168], for which the kinact/KI was determined as 2.16e+06 M⁻¹ s⁻¹.

For the compound `CCC[C@@H](NC(=O)N1C(=O)C(CC)(CC)[C@@H]1Oc1ccc(C(=O)N(C)CCO)cc1)c1ccc(C)cc1` [Compound 169], the kinact/KI is 1.46e+06 M⁻¹ s⁻¹.

Regarding `CCC[C@@H](NC(=O)N1C(=O)C(CC)(CC)[C@@H]1Oc1ccc(C(=O)N(C)CCOC(=O)N(C)C)cc1)c1ccc(C)cc1` [Compound 170], the kinact/KI came to 1.52e+06 M⁻¹ s⁻¹.

Take `CCC[C@@H](NC(=O)N1C(=O)C(CC)(CC)[C@@H]1Oc1ccc(C(=O)N(C)CCN(C)CC(=O)OC(C)(C)C)cc1)c1ccc(C)cc1` [Compound 171]: the kinact/KI turned out to be 1.83e+06 M⁻¹ s⁻¹.

Regarding `CCC[C@@H](NC(=O)N1C(=O)C(CC)(CC)[C@@H]1Oc1ccc(C(=O)N(C)C2CCCN(CC)C2)cc1)c1ccc(C)cc1` (stereo partly shown) [Compound 172], the kinact/KI was 1.54e+06 M⁻¹ s⁻¹.

As for `CCC[C@@H](NC(=O)N1C(=O)C(CC)(CC)[C@@H]1Oc1ccc(C(=O)N(C)CCN(C)CC2CCCCO2)cc1)c1ccc(C)cc1` (stereo partly shown) [Compound 173], the kinact/KI turned out to be 2.94e+06 M⁻¹ s⁻¹.

Consider `CCC[C@@H](NC(=O)N1C(=O)C(CC)(CC)[C@@H]1Oc1ccc(C(=O)NC2CC(C)(C)NC(C)(C)C2)cc1)c1ccc(C)cc1` [Compound 174], for which the kinact/KI came to 869000 M⁻¹ s⁻¹.

`CCC[C@@H](NC(=O)N1C(=O)C(CC)(CC)[C@@H]1Oc1ccc(C(=O)N(C)c2ccc(C(=O)O)cc2)cc1)c1ccc(C)cc1` [Compound 175]: the kinact/KI worked out at 1.06e+06 M⁻¹ s⁻¹.

As for `CCC[C@@H](NC(=O)N1C(=O)C(CC)(CC)[C@@H]1Oc1ccc(C(=O)N(C)c2ccc(C(=O)NS(=O)(=O)c3ccccc3)cc2)cc1)c1ccc(C)cc1` [Compound 176], the kinact/KI is 3.23e+06 M⁻¹ s⁻¹.

Turning to `CCC[C@@H](NC(=O)N1C(=O)C(CC)(CC)[C@@H]1Oc1ccc(C(=O)N(C)CCN(C)Cc2ccc(C#N)cc2)cc1)c1ccc(C)cc1` [Compound 177], the kinact/KI turned out to be 2.2e+06 M⁻¹ s⁻¹.

Take `CCC[C@@H](NC(=O)N1C(=O)C(CC)(CC)[C@@H]1Oc1ccc(C(=O)N(C)CCN(C)Cc2ccc(C)cc2)cc1)c1ccc(C)cc1` [Compound 178]: the kinact/KI is 1.87e+06 M⁻¹ s⁻¹.

As for `CCC[C@@H](NC(=O)N1C(=O)C(CC)(CC)[C@@H]1Oc1ccc(C(=O)N(C)CCN(C)Cc2cccc(C#N)c2)cc1)c1ccc(C)cc1` [Compound 179], the kinact/KI turned out to be 2.45e+06 M⁻¹ s⁻¹.

As to `CCC[C@@H](NC(=O)N1C(=O)C(CC)(CC)[C@@H]1Oc1ccc(C(=O)N(C)CCN(C)Cc2ccc(C(F)(F)F)cc2)cc1)c1ccc(C)cc1` [Compound 180], the kinact/KI was 905000 M⁻¹ s⁻¹.

With `CCC[C@@H](NC(=O)N1C(=O)C(CC)(CC)[C@@H]1Oc1ccc(C(=O)N(C)CCN(C)Cc2cccc(C(F)(F)F)c2)cc1)c1ccc(C)cc1` [Compound 181], the kinact/KI turned out to be 564000 M⁻¹ s⁻¹.

As for `CCC[C@@H](NC(=O)N1C(=O)C(CC)(CC)[C@@H]1Oc1ccc(C(=O)N(C)CCN(C)Cc2ccc(F)cc2)cc1)c1ccc(C)cc1` [Compound 182], the kinact/KI came out at 2.14e+06 M⁻¹ s⁻¹.

Take `CCC[C@@H](NC(=O)N1C(=O)C(CC)(CC)[C@@H]1Oc1ccc(C(=O)NC(C)[PH](=O)O)cc1)c1ccc(C)cc1` (stereo partly shown) [Compound 183]: the kinact/KI stood at 977000 M⁻¹ s⁻¹.

As to `CCC[C@@H](NC(=O)N1C(=O)C(CC)(CC)[C@@H]1Oc1ccc(C(=O)N[C@@H](CCCCN)C(=O)O)cc1)c1ccc(C)cc1` [Compound 184], the kinact/KI turned out to be 755000 M⁻¹ s⁻¹.

Take `CCC[C@@H](NC(=O)N1C(=O)C(CC)(CC)[C@@H]1Oc1ccc(C(=O)N(C)CCN(C)CC2CC2)cc1)c1ccc(C)cc1` [Compound 185]: the kinact/KI was found to be 1.79e+06 M⁻¹ s⁻¹.
